Numbered stars: 1 amine (or outer) side, 2 acyl side, 3 side chain; on linkers, the order of the positions; unused ones are H or OH. Bridge positions count the residues as written; N and C are the ends. Square brackets hold non-standard residues; d marks the D form. Peptide text beside a SMILES is read from it. * marks the point of attachment. X1 = CC[C@H](C)[C@@H](N[*:1])[C@@H](O)CC(=O)O[C@H](C(=O)[C@H](C)C(=O)[*:2])C(C)C; X3 = CC[C@H](C)[C@H](N[*:1])[C@@H](O)CC(=O)O[C@H](C(=O)[C@H](C)C(=O)[*:2])C(C)C; X7 = CCC(C)C(N[*:1])C(O)CC(=O)OC(C(=O)C(C)C(=O)[*:2])C(C)C; NMeY = CN[CH](Cc1ccc(O)cc1)C(=O)O; Stearoyl = CCCCCCCCCCCCCCCCCC(=O)*; aThr = C[C@H](O)[C@H](N)C(=O)O; NMeL = CN[CH](CC(C)C)C(=O)O; dNMeL = CN[C@H](CC(C)C)C(=O)O; Lauroyl = CCCCCCCCCCCC(=O)*; Octanoyl = CCCCCCCC(=O)*; Hexanoyl = CCCCCC(=O)*; Pentanoyl = CCCCC(=O)*; Propionyl = CCC(=O)*; Butyryl = CCCC(=O)*; For = O=C*
Experiments:
[1] = test system: concanavalin A-induced lymphoblasts (Con A splenocytes); experiment: Lymphoblast viability (LbV) assay; settings: Con A-stimulated splenocytes (lymphoblasts), MTT
[2] = test system: Balb/c splenocytes (resting lymphocytes); experiment: Lymphocyte viability (LcV) assay; type: cell-based, murine; settings: unstimulated Balb/c splenocytes, MTT
Method: Forty two (42) didemnin compounds (see Table 1) were evaluated for cytotoxicity to one of the lymphocyte populations in the MLR (i.e., Balb/c splenocytes). The purpose of the lymphocyte viability assay (LcV) is to measure metabolic activity in lymphocytes after they have been exposed to the compounds for the duration of an under conditions equivalent to the MLR. The inverse of the data yields cytotoxicity information about the compounds on murine lymphocytes. The rationale of using resting cells, in this case unstimulated lymphocytes, to measure cytotoxicity has a strategic importance. In the MLR the heterogenous cell populations are predominantly resting cells when the assay begins.
Test compounds were prepared in two sets as described above. Splenocytes were prepared as described previously from one murine strain (Balb/c), and a volume of 200 μL of the cell suspension was added to one set of test compounds and control wells.
Assay plates were incubated as in the MLR and then pulsed overnight 75 μL per well MTT-thiazolyl blue solution (150 μg). The plates were decanted and the resulting insoluble formazan crystals were dissolved in 200 μL of isopropyl alcohol. Absorbance at 570 nm was measured.
The LcV data were calculated as a percentage of basal metabolic activity, or percent viability, relative to BALB/c control, and an LC50 value was interpolated for each test compound.

[3] = test system: murine splenocytes (Balb/c and C57B1/6); experiment: Two-way mixed lymphocyte reaction (MLR) assay; settings: Balb/c + C57B1/6 splenocytes, 96 h, [3H]thymidine; for IC50: read-out: two-way mixed lymphocyte reaction (MLR) suppression MLR, IC50;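 as to all read-outs here: proliferation read as tritiated thymidine incorporation into newly made DNA after an overnight pulse, expressed as percent of control activity, IC50 interpolated per compound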

Structure (SMILES) | cytotoxicity to lymphocytes LbV, LC50 [1] | cytoxicity to lymphocytes LcV, LC50 [2] | cytoxicity to lymphocytes LcV, LC50 ([2]; highest concentration 10 μg/mL) | two-way mixed lymphocyte reaction (MLR) suppression MLR, IC50 [3] | IC50 [3]
CC[C@H](C)[C@H]1NC(=O)[C@@H](NC(=O)[C@@H](CC(C)C)N(C)C(=O)[C@@H]2CCCN2C(=O)[C@H](C)O)[C@@H](C)OC(=O)[C@H](CC2CCCCC2)N(C)C(=O)[C@@H]2CCCN2C(=O)[C@H](CC(C)C)NC(=O)[C@@H](C)C(=O)[C@H](C(C)C)OC(=O)C[C@@H]1O [Compound 16, [H6 -N-MePhe^6]Didemnin B] | 0.73 nM | > 9200 nM | > 10 µg/mL | 0.57 ng/mL | 0.52 nM
CC[C@H](C)[C@@H](NC(=O)[C@@H](NC(=O)[C@@H](CC(C)C)NC)[C@@H](C)O)[C@@H](O)CC(=O)O[C@H](C(=O)[C@H](C)C(=O)N[C@@H](CC(C)C)C(=O)N1CCC[C@H]1C(=O)N(C)[C@@H](Cc1ccc(OC)cc1)C(=O)O)C(C)C [Compound 17, Acyclodidemnin A] (H-[dNMeL]T[X1]LP[NMeY](Me)-OH) | 240 nM | > 10400 nM | > 10 µg/mL | 0.54 ng/mL | 0.57 nM
CC[C@H](C)[C@H]1NC(=O)[C@@H](NC(=O)[C@@H](CC(C)C)N(C)C(C)=O)[C@@H](C)OC(=O)[C@H](Cc2ccc(OC)cc2)N(C)C(=O)[C@@H]2CCCN2C(=O)[C@H](CC(C)C)NC(=O)[C@@H](C)C(=O)[C@H](C(C)C)OC(=O)C[C@@H]1O [Compound 18, N^α -Acetyldidemnin A] (Ac-[dNMeL]T[X1]LP[NMeY](Me); ester 2-C) | 0.39 nM | > 10000 nM | > 10 µg/mL | 0.027 ng/mL | 0.027 nM
CCC(=O)N(C)[C@H](CC(C)C)C(=O)N[C@@H]1C(=O)N[C@H]([C@@H](C)CC)[C@@H](O)CC(=O)O[C@@H](C(C)C)C(=O)[C@H](C)C(=O)N[C@@H](CC(C)C)C(=O)N2CCC[C@H]2C(=O)N(C)[C@@H](Cc2ccc(OC)cc2)C(=O)O[C@@H]1C [Compound 19, N^α -Propionyldidemnin A] (Propionyl-[dNMeL]T[X1]LP[NMeY](Me); ester 2-C) | 0.068 nM | 6500 nM | 6.50 µg/mL | 0.37 ng/mL | 0.37 nM
CCCC(=O)N(C)C(CC(C)C)C(=O)NC1C(=O)NC(C(C)CC)C(O)CC(=O)OC(C(C)C)C(=O)C(C)C(=O)NC(CC(C)C)C(=O)N2CCCC2C(=O)N(C)C(Cc2ccc(OC)cc2)C(=O)OC1C (stereo not drawn) [Compound 20, N^α -n-Butyryldidemnin A] (Butyryl-[NMeL]T[X7]LP[NMeY](Me); ester 2-C; configuration not given here) | 0.074 nM | 99 nM | – | 0.30 ng/mL | 0.3 nM
CCCCC(=O)N(C)[C@H](CC(C)C)C(=O)N[C@@H]1C(=O)N[C@H]([C@@H](C)CC)[C@@H](O)CC(=O)O[C@@H](C(C)C)C(=O)[C@H](C)C(=O)N[C@@H](CC(C)C)C(=O)N2CCC[C@H]2C(=O)N(C)[C@@H](Cc2ccc(OC)cc2)C(=O)O[C@@H]1C [Compound 21, N^α -Pentanoyldidemnin A] (Pentanoyl-[dNMeL]T[X1]LP[NMeY](Me); ester 2-C) | 0.059 nM | 9700 nM | > 10 µg/mL | 0.48 ng/mL | 0.48 nM
CCCCCC(=O)N(C)[C@H](CC(C)C)C(=O)N[C@@H]1C(=O)N[C@H]([C@@H](C)CC)[C@@H](O)CC(=O)O[C@@H](C(C)C)C(=O)[C@H](C)C(=O)N[C@@H](CC(C)C)C(=O)N2CCC[C@H]2C(=O)N(C)[C@@H](Cc2ccc(OC)cc2)C(=O)O[C@@H]1C [Compound 22, N^α -Hexanoyldidemnin A] (Hexanoyl-[dNMeL]T[X1]LP[NMeY](Me); ester 2-C) | 0.11 nM | 9600 nM | > 10 µg/mL | 0.022 ng/mL | 0.021 nM
CCCCCCCC(=O)N(C)[C@H](CC(C)C)C(=O)N[C@@H]1C(=O)N[C@H]([C@@H](C)CC)[C@@H](O)CC(=O)O[C@@H](C(C)C)C(=O)[C@H](C)C(=O)N[C@@H](CC(C)C)C(=O)N2CCC[C@H]2C(=O)N(C)[C@@H](Cc2ccc(OC)cc2)C(=O)O[C@@H]1C [Compound 23, N^α -Octanoyldidemnin A] (Octanoyl-[dNMeL]T[X1]LP[NMeY](Me); ester 2-C) | 21 nM | > 9350 nM | > 10 µg/mL | 5.50 ng/mL | 5.1 nM
CCCCCCCCCCCC(=O)N(C)[C@H](CC(C)C)C(=O)N[C@@H]1C(=O)N[C@H]([C@@H](C)CC)[C@@H](O)CC(=O)O[C@@H](C(C)C)C(=O)[C@H](C)C(=O)N[C@@H](CC(C)C)C(=O)N2CCC[C@H]2C(=O)N(C)[C@@H](Cc2ccc(OC)cc2)C(=O)O[C@@H]1C [Compound 24, N^α -Dodecanoyldidemnin A] (Lauroyl-[dNMeL]T[X1]LP[NMeY](Me); ester 2-C) | 160 nM | > 8900 nM | > 10 µg/mL | 119 ng/mL | 106 nM
CCCCCCCCCCCCCCCCCC(=O)N(C)[C@H](CC(C)C)C(=O)N[C@@H]1C(=O)N[C@H]([C@@H](C)CC)[C@@H](O)CC(=O)O[C@@H](C(C)C)C(=O)[C@H](C)C(=O)N[C@@H](CC(C)C)C(=O)N2CCC[C@H]2C(=O)N(C)[C@@H](Cc2ccc(OC)cc2)C(=O)O[C@@H]1C [Compound 25, N^α -Octadecanoyldidemnin A] (Stearoyl-[dNMeL]T[X1]LP[NMeY](Me); ester 2-C) | 2700 nM | > 8500 nM | > 10 µg/mL | 6040 ng/mL | 5110 nM
CC[C@H](C)[C@@H]1NC(=O)[C@@H](NC(=O)[C@H](CC(C)C)N(C)C=O)[C@H](C)OC(=O)[C@H](Cc2ccc(OC)cc2)N(C)C(=O)[C@@H]2CCCN2C(=O)[C@H](CC(C)C)NC(=O)[C@@H](C)C(=O)[C@H](C(C)C)OC(=O)C[C@@H]1O [Compound 26, Didemnin G] (For-[NMeL][aThr][X3]LP[NMeY](Me); ester 2-C) | 1.1 nM | > 10000 nM | > 10 µg/mL | 0.70 ng/mL | 0.72 nM
CC[C@H](C)[C@H]1NC(=O)[C@@H](NC(=O)[C@@H](CC(C)C)N(C)C(=O)[C@@H](N)CC(C)C)[C@@H](C)OC(=O)[C@H](Cc2ccc(OC)cc2)N(C)C(=O)[C@@H]2CCCN2C(=O)[C@H](CC(C)C)NC(=O)[C@@H](C)C(=O)[C@H](C(C)C)OC(=O)C[C@@H]1O [Compound 27, N-(L-Leu)Didemnin A] (H-L[dNMeL]T[X1]LP[NMeY](Me); ester 3-C) | 3.8 nM | > 9500 nM | > 10 µg/mL | 0.78 ng/mL | 0.74 nM
CC[C@H](C)[C@H]1NC(=O)[C@@H](NC(=O)[C@@H](CC(C)C)N(C)C(=O)[C@@H]2CCCN2)[C@@H](C)OC(=O)[C@H](Cc2ccc(OC)cc2)N(C)C(=O)[C@@H]2CCCN2C(=O)[C@H](CC(C)C)NC(=O)[C@@H](C)C(=O)[C@H](C(C)C)OC(=O)C[C@@H]1O [Compound 28, N^α -(L-Pro)Didemnin A] (H-P[dNMeL]T[X1]LP[NMeY](Me); ester 3-C) | 5.1 nM | > 9600 nM | > 10 µg/mL | 1.00 ng/mL | 0.96 nM
CC[C@H](C)[C@H]1NC(=O)[C@@H](NC(=O)[C@@H](CC(C)C)N(C)C(=O)[C@H]2CCCN2)[C@@H](C)OC(=O)[C@H](Cc2ccc(OC)cc2)N(C)C(=O)[C@@H]2CCCN2C(=O)[C@H](CC(C)C)NC(=O)[C@@H](C)C(=O)[C@H](C(C)C)OC(=O)C[C@@H]1O [Compound 29, N^α -(D-Pro)-Didemnin A] (H-[dP][dNMeL]T[X1]LP[NMeY](Me); ester 3-C) | 22 nM | > 9600 nM | > 10 µg/mL | 12.2 ng/mL | 11.7 nM
